In patent US11384083B2, “Substituted spiro[cyclopropane-1,5′-pyrrolo[2,3-d]pyrimidin]-6′(7′h)-ones as CDK2 inhibitors” (Incyte Corporation, priority 2019, dated 2022):
pIC50: −log10 of the molar value.

Target: CDK2/Cyclin E1 (Homo sapiens (Human), UniProt P24941)
Assay: CDK2/Cyclin E1 HTRF enzyme activity assay
Type: biochemical
Conditions: 1 mM ATP
Procedure: Example A. CDK2/Cyclin E1 HTRF Enzyme Activity Assay
CDK2/Cyclin E1 enzyme activity assays utilized full-length human CDK2 co-expressed as N-terminal GST-tagged protein with FLAG-Cyclin E1 in a baculovirus expression system (Carna Product Number 04-165). Assays were conducted in white 384-well polystyrene plates in a final reaction volume of 8 μL. CDK2/Cyclin E1 (0.25 nM) was incubated with compounds (40 nL serially diluted in DMSO) in the presence of ATP (50 μM or 1 mM) and 50 nM ULight™-labeled eIF4E-binding protein 1 (THR37/46) peptide (PerkinElmer) in assay buffer (containing 50 mM HEPES pH 7.5, 1 mM EGTA, 10 mM MgCl2, 2 mM DTT, 0.05 mg/mL BSA, and 0.01% Tween 20) for 60 minutes at room temperature. The reactions were stopped by the addition of EDTA and Europium-labeled anti-phospho-4E-BP1 antibody (PerkinElmer), for a final concentration of 15 mM and 1.5 nM, respectively. HTRF signals were read after 1 hour at room temperature on a PHERAstar FS plate reader (BMG Labtech). Data were analyzed with IDBS XLFit and GraphPad Prism 5.0 software using a three or four parameter dose response curve to determine IC50 for each compound.

Row | pIC50 | SMILES
1 | ≥ 7.30 | CCC(C(F)F)N1C(=O)C2(CC2)c2cnc(NC3CCN(S(C)(=O)=O)CC3)nc21 (racemic) [Example 10, 7′-(1,1-difluorobutan-2-yl)-2′-((1-(methylsulfonyl)piperidin-4-yl)amino)spiro[cyclopropane-1,5′-pyrrolo[2,3-d]pyrimidin]-6′(7′H)-one]
2 | ≥ 7.30 | C[C@@]1(O)CCC[C@H]1N1C(=O)C2(CC2)c2cnc(NC3CCN(S(=O)(=O)c4ncc[nH]4)CC3)nc21 (relative stereo) [Example 17, 2′-((1-((1H-imidazol-2-yl)sulfonyl)piperidin-4-yl)amino)-7′-((trans)-2-hydroxy-2-methylcyclopentyl)spiro[cyclopropane-1,5′-pyrrolo[2,3-d]pyrimidin]-6′(7′H)-one]
3 | ≥ 7.30 | O=C1N(C2CCCC2)c2nc(NC3CCN(S(=O)(=O)C4CC4)CC3)ncc2C12CC2 [Example 3, 7′-Cyclopentyl-2′-((1-(cyclopropylsulfonyl)piperidin-4-yl)amino)spiro[cyclopropane-1,5′-pyrrolo[2,3-d]pyrimidin]-6′(7′H)-one]
4 | ≥ 7.30 | O=C1N(C2CCCC2)c2nc(NC3CCN(S(=O)(=O)c4cccnc4)CC3)ncc2C12CC2 [Example 5, 7′-Cyclopentyl-2′-((1-(pyridin-3-ylsulfonyl)piperidin-4-yl)amino)spiro[cyclopropane-1,5′-pyrrolo[2,3-d]pyrimidin]-6′(7′H)-one]
5 | ≥ 7.30 | Cn1cc(S(=O)(=O)N2CCC(Nc3ncc4c(n3)N(C3CCCC3)C(=O)C43CC3)CC2)cn1 [Example 7, 7′-Cyclopentyl-2′-((1-((1-methyl-1H-pyrazol-4-yl)sulfonyl)piperidin-4-yl)amino)spiro[cyclopropane-1,5′-pyrrolo[2,3-d]pyrimidin]-6′(7′H)-one]
6 | ≥ 7.30 | CC1CCCC1N1C(=O)C2(CC2)c2cnc(NC3CCN(S(C)(=O)=O)CC3)nc21 (stereo not shown) [Example 8, 7′-(2-Methylcyclopentyl)-2′-((1-(methylsulfonyl)piperidin-4-yl)amino)spiro[cyclopropane-1,5′-pyrrolo[2,3-d]pyrimidin]-6′(7′H)-one]
7 | ≥ 7.30 | Cn1cc(S(=O)(=O)N2CCC(Nc3ncc4c(n3)N([C@@H]3CCC[C@@H](O)C3)C(=O)C43CC3)CC2)cn1 [Example 12, 7′-((1R,3R)-3-hydroxycyclohexyl)-2′-((1-((1-methyl-1H-pyrazol-4-yl)sulfonyl)piperidin-4-yl)amino)spiro[cyclopropane-1,5′-pyrrolo[2,3-d]pyrimidin]-6′(7′H)-one]
8 | ≥ 7.30 | O=C1N([C@@H]2CCC[C@@H](O)C2)c2nc(NC3CCN(S(=O)(=O)c4cccc(N5CCC5)n4)CC3)ncc2C12CC2 [Example 13, 2′-((1-((6-(azetidin-1-yl)pyridin-2-yl)sulfonyl)piperidin-4-yl)amino)-7′-((1R,3R)-3-hydroxycyclohexyl)spiro[cyclopropane-1,5′-pyrrolo[2,3-d]pyrimidin]-6′(7′H)-one]
9 | ≥ 7.30 | C[C@@H](C1CC1)N1C(=O)C2(CC2)c2cnc(NC3CCN(S(=O)(=O)c4ncc[nH]4)CC3)nc21 [Example 14, (S)-2′-((1-((1H-imidazol-2-yl)sulfonyl)piperidin-4-yl)amino)-7′-(1-cyclopropylethyl)spiro[cyclopropane-1,5′-pyrrolo[2,3-d]pyrimidin]-6′(7′H)-one]
10 | ≥ 7.30 | C[C@@H](C1CC1)N1C(=O)C2(CC2)c2cnc(NC3CCN(S(=O)(=O)c4ccc(=O)[nH]c4)CC3)nc21 [Example 15, (S)-7′-(1-cyclopropylethyl)-2′-((1-((6-oxo-1,6-dihydropyridin-3-yl)sulfonyl)piperidin-4-yl)amino)spiro[cyclopropane-1,5′-pyrrolo[2,3-d]pyrimidin]-6′(7′H)-one]
11 | ≥ 7.30 | CCN1CC(n2cc(S(=O)(=O)N3CCC(Nc4ncc5c(n4)N([C@@H](C)C4CC4)C(=O)C54CC4)CC3)cn2)C1 [Example 16, (S)-7′-(1-cyclopropylethyl)-2′-((1-((1-(1-ethylazetidin-3-yl)-1H-pyrazol-4-yl)sulfonyl)piperidin-4-yl)amino)spiro[cyclopropane-1,5′-pyrrolo[2,3-d]pyrimidin]-6′(7′H)-one]
12 | ≥ 7.30 | O=C1N(c2cc3c(cc2Cl)CNCC3)c2nc(NC3CCN(S(=O)(=O)c4ncc[nH]4)CC3)ncc2C12CC2 [Example 18, 2′-((1-((1H-imidazol-2-yl)sulfonyl)piperidin-4-yl)amino)-7′-(7-chloro-1,2,3,4-tetrahydroisoquinolin-6-yl)spiro[cyclopropane-1,5′-pyrrolo[2,3-d]pyrimidin]-6′(7′H)-one]
13 | ≥ 7.30 | CCn1cnc(S(=O)(=O)N2CCC(Nc3ncc4c(n3)N(c3cc(F)ccc3Cl)C(=O)C43CC3)CC2)c1 [Example 19, 7′-(2-chloro-5-fluorophenyl)-2′-((1-((1-ethyl-1H-imidazol-4-yl)sulfonyl)piperidin-4-yl)amino)spiro[cyclopropane-1,5′-pyrrolo[2,3-d]pyrimidin]-6′(7′H)-one]
